# Reference: US20250360235A1, “RADI[…] AND METHOD FOR RADIOLABELLING” (Telix Innovations SA, priority 2024, published 2025)
# Test: Radiochemical purity by iTLC over time after radiolabelling
# Format: physicochemical
# Description: Table 1 to Table 5 show the results of various radiolabelling experiments on radiochemical purity and the chelation yield. The radiolabelling experiments in the tables are carried out as described in: • Example 1 for when the gallium-68 source is GE Liquid target generator and EZAG GalliaPharm generator; • Example 2 for when the gallium-68 source is IRE Galli Eo generator; • Example 3 for when the gallium-68 source is GE solid target generator;
# However, the experiments were carried out with the amount of ascorbic acid as indicated in the Tables 1 to 5, and the activity as indicated in the Tables 1 to 5. Radiochemical purities were measured at various times (T0, T1, T4, T6) after the radiolabelled experiments have been conducted.
# The kits of Example 1, Example 2 or Example 3, with amounts of ascorbic acid as set out in Table 7 were used in the experiments for the ascorbic acid bracketing matrix. Three strengths of [^68Ga]Ga-PSMA-11 will be tested, i.e. 50 mCi/ml, 7 mCi/ml and 1 mCi/ml. Radiochemical purity was determined at different time points (TO, T1, T4 or T6), as set out in Table 7.
# [1] = 25 mg ascorbic acid, 46.0-46.1 mCi, 4.38-4.39 mCi/mL, EZAG GalliaPharm, average of 2, T4 (4 h)
# [2] = 25 mg ascorbic acid, 46.0-46.1 mCi, 4.38-4.39 mCi/mL, EZAG GalliaPharm, n=2, T0
# [3] = 25 mg ascorbic acid, 46.0-46.1 mCi, 4.38-4.39 mCi/mL, EZAG GalliaPharm, n=2, T4 (4 h)
# [4] = bracketing ~1 mCi/mL, 18.75 mg ascorbic acid, 8.9-11.5 mCi, 0.85-1.09 mCi/mL, IRE Galli Eo, average of 2, T0
# [5] = bracketing ~1 mCi/mL, 18.75 mg ascorbic acid, 8.9-11.5 mCi, 0.85-1.09 mCi/mL, IRE Galli Eo, average of 2, T1 (1 h)
# [6] = bracketing ~1 mCi/mL, 25 mg ascorbic acid, 8.8-12.7 mCi, 0.84-1.21 mCi/mL, 2 × IRE Galli Eo, average of 2, T0
# [7] = bracketing ~1 mCi/mL, 25 mg ascorbic acid, 8.8-12.7 mCi, 0.84-1.21 mCi/mL, 2 × IRE Galli Eo, average of 2, T1 (1 h)
# [8] = bracketing ~1 mCi/mL, 31.25 mg ascorbic acid, 15.2-26.9 mCi, 1.44-2.54 mCi/mL, EZAG GalliaPharm, average of 2, T0
# [9] = bracketing ~1 mCi/mL, 31.25 mg ascorbic acid, 15.2-26.9 mCi, 1.44-2.54 mCi/mL, EZAG GalliaPharm, average of 2, T1 (1 h)
# [10] = bracketing ~7 mCi/mL, 18.75 mg ascorbic acid, 51.0-58.0 mCi, 5.55-6.5 mCi/mL, IRE Galli Eo, average of 2, T0
# [11] = bracketing ~7 mCi/mL, 18.75 mg ascorbic acid, 51.0-58.0 mCi, 5.55-6.5 mCi/mL, IRE Galli Eo, average of 2, T4 (4 h)
# [12] = bracketing ~7 mCi/mL, 25 mg ascorbic acid, 51.6-74.4 mCi, 4.56-6.92 mCi/mL, 3 × GE Liquid Target, 3 × IRE Galli Eo, 3 × EZAG GalliaPharm, average of 9, T0
# [13] = bracketing ~7 mCi/mL, 25 mg ascorbic acid, 51.6-74.4 mCi, 4.56-6.92 mCi/mL, 3 × GE Liquid Target, 3 × IRE Galli Eo, 3 × EZAG GalliaPharm, average of 9, T4 (4 h)
# [14] = bracketing ~7 mCi/mL, 31.25 mg ascorbic acid, 61.5-62.0 mCi, 5.85-5.88 mCi/mL, EZAG GalliaPharm, average of 2, T0
# [15] = bracketing ~7 mCi/mL, 31.25 mg ascorbic acid, 61.5-62.0 mCi, 5.85-5.88 mCi/mL, EZAG GalliaPharm, average of 2, T4 (4 h)
# [16] = bracketing ~50 mCi/mL, 20 mg ascorbic acid, 514-544 mCi, 48.3-51.9 mCi/mL, GE Solid Target, average of 2, T0
# [17] = bracketing ~50 mCi/mL, 20 mg ascorbic acid, 514-544 mCi, 48.3-51.9 mCi/mL, GE Solid Target, average of 2, T6 (6 h)
# [18] = bracketing ~50 mCi/mL, 25 mg ascorbic acid, 537-551 mCi, 50.2-51.6 mCi/mL, GE Solid Target, average of 3, T0
# [19] = bracketing ~50 mCi/mL, 25 mg ascorbic acid, 537-551 mCi, 50.2-51.6 mCi/mL, GE Solid Target, average of 3, T6 (6 h)
# [20] = bracketing ~50 mCi/mL, 31.25 mg ascorbic acid, 500-544 mCi, 48.1-51.7 mCi/mL, GE Solid Target, average of 2, T0
structure (smiles),measurement,setting,value
"O=C([O-])CN(CCN(CC(=O)[O-])Cc1cc(CCC(=O)NCCCCCC(=O)NCCCC[C@H](NC(=O)N[C@@H](CCC(=O)O)C(=O)O)C(=O)O)ccc1[O-])Cc1cc(CCC(=O)O)ccc1[O-].[68Ga+3].[OH3+] [[^68Ga]PSMA-11, gallium-68 radiolabelled Glu-urea-Lys-HBED-CC (gozetotide or PSMA-11)]",Radiochemical Purity (iTLC) Free and Colloidal Ga-68 (%),[1],0%
same,Radiochemical Purity (iTLC) Ga-68 PSMA-11 (%),[1],100%
same,Radiochemical Purity (iTLC) Free and Colloidal Ga-68 (%),[2],C (C = all results conform to specifications)
same,Radiochemical Purity (iTLC) Ga-68 PSMA-11 (%),[2],C (C = all results conform to specifications)
same,Radiochemical Purity (iTLC) Free and Colloidal Ga-68 (%),[3],C (C = all results conform to specifications)
same,Radiochemical Purity (iTLC) Ga-68 PSMA-11 (%),[3],C (C = all results conform to specifications)
same,Radiochemical Purity (iTLC) Free and Colloidal Ga-68 (%),[4],0%
same,Radiochemical Purity (iTLC) Ga-68 PSMA-11 (%),[4],100%
same,Radiochemical Purity (iTLC) Free and Colloidal Ga-68 (%),[5],0%
same,Radiochemical Purity (iTLC) Ga-68 PSMA-11 (%),[5],100%
same,Radiochemical Purity (iTLC) Free and Colloidal Ga-68 (%),[6],0%
same,Radiochemical Purity (iTLC) Ga-68 PSMA-11 (%),[6],100%
same,Radiochemical Purity (iTLC) Free and Colloidal Ga-68 (%),[7],0%
same,Radiochemical Purity (iTLC) Ga-68 PSMA-11 (%),[7],100%
same,Radiochemical Purity (iTLC) Free and Colloidal Ga-68 (%),[8],0%
same,Radiochemical Purity (iTLC) Ga-68 PSMA-11 (%),[8],100%
same,Radiochemical Purity (iTLC) Free and Colloidal Ga-68 (%),[9],0%
same,Radiochemical Purity (iTLC) Ga-68 PSMA-11 (%),[9],100%
same,Radiochemical Purity (iTLC) Free and Colloidal Ga-68 (%),[10],0%
same,Radiochemical Purity (iTLC) Ga-68 PSMA-11 (%),[10],100%
same,Radiochemical Purity (iTLC) Free and Colloidal Ga-68 (%),[11],0%
same,Radiochemical Purity (iTLC) Ga-68 PSMA-11 (%),[11],100%
same,Radiochemical Purity (iTLC) Free and Colloidal Ga-68 (%),[12],0%
same,Radiochemical Purity (iTLC) Ga-68 PSMA-11 (%),[12],100%
same,Radiochemical Purity (iTLC) Free and Colloidal Ga-68 (%),[13],1%
same,Radiochemical Purity (iTLC) Ga-68 PSMA-11 (%),[13],99%
same,Radiochemical Purity (iTLC) Free and Colloidal Ga-68 (%),[14],0%
same,Radiochemical Purity (iTLC) Ga-68 PSMA-11 (%),[14],100%
same,Radiochemical Purity (iTLC) Free and Colloidal Ga-68 (%),[15],0%
same,Radiochemical Purity (iTLC) Ga-68 PSMA-11 (%),[15],100%
same,Radiochemical Purity (iTLC) Free and Colloidal Ga-68 (%),[16],3%
same,Radiochemical Purity (iTLC) Ga-68 PSMA-11 (%),[16],97%
same,Radiochemical Purity (iTLC) Free and Colloidal Ga-68 (%),[17],2%
same,Radiochemical Purity (iTLC) Ga-68 PSMA-11 (%),[17],98%
same,Radiochemical Purity (iTLC) Free and Colloidal Ga-68 (%),[18],0%
same,Radiochemical Purity (iTLC) Ga-68 PSMA-11 (%),[18],100%
same,Radiochemical Purity (iTLC) Free and Colloidal Ga-68 (%),[19],1%
same,Radiochemical Purity (iTLC) Ga-68 PSMA-11 (%),[19],99%
same,Radiochemical Purity (iTLC) Free and Colloidal Ga-68 (%),[20],1%
same,Radiochemical Purity (iTLC) Ga-68 PSMA-11 (%),[20],99%
same,Radiochemical Purity (iTLC) Free and Colloidal Ga-68 (%),"bracketing ~50 mCi/mL, 31.25 mg ascorbic acid, 500-544 mCi, 48.1-51.7 mCi/mL, GE Solid Target, average of 2, T6 (6 h)",1%
